According to patent US20170368082A1, “FORMULATIONS OF BRINCIDOFOVIR” (priority 2016, published 2017):

Experiment: PBMC PK of CDV-PP following IV and oral suspension BCV
Assay type: in vivo, human
Details: PBMC CDV-PP
Experimental: Two single dose BCV studies in healthy subjects contributed data for this analysis. The first study was a 2-period crossover bioequivalence study that enrolled 24 subjects who received two formulations of BCV oral suspension 100 mg fasted, one in each period. Data from 12 subjects who had PBMCs collected in Period 1 were included in this analysis; these subjects were 100% female, 31-59 years, and 58-88 kg. The second study, outlined above, enrolled 40 subjects who received IV BCV or placebo. Data from 18 subjects who received BCV 50 mg as either a 2-h or 4-h IV infusion were included in this analysis; these subjects were 100% male, 18-46 years, 64-106 kg. Serial PBMC samples were collected over 14 days and assayed by HPLC-MS-MS. PBMC CDV-PP PK parameters were determined by non-compartmental analysis.

[1] = BCV 50 mg IV 2 h Infusion, n = 9
[2] = BCV 50 mg IV 4 h Infusion, n = 9
[3] = BCV 100 mg Oral suspension, n = 12

**Q.** For cidofovir diphosphate [CDV-PP], which AUClast [1] is on record?
**A.** 1409 pg · h/10^6 cells

**Q.** What about the Cmax [1] of the same substance?
**A.** 14.3 pg/10^6 cells

**Q.** And the AUClast [2]?
**A.** 963 pg · h/10^6 cells

**Q.** And the Cmax [2]?
**A.** 8.41 pg/10^6 cells

**Q.** And the AUClast [3]?
**A.** 1107 pg · h/10^6 cells

**Q.** What about the Cmax [3] of the same substance?
**A.** 7.68 pg/10^6 cells
